# From US8575158B2, “1-phenyl-substituted heterocyclyl derivatives and their use as prostaglandin D2 receptor modulators” (Actelion Pharmaceuticals Ltd., priority 2010, dated 2013)
# Biological target: T1, hCRTH2 receptor (Homo sapiens, UniProt Q9Y5Y4)
# T1 construct: expressed in transfected cells; host or cells: HEK293
# T1 sequence (Q9Y5Y4 1-395): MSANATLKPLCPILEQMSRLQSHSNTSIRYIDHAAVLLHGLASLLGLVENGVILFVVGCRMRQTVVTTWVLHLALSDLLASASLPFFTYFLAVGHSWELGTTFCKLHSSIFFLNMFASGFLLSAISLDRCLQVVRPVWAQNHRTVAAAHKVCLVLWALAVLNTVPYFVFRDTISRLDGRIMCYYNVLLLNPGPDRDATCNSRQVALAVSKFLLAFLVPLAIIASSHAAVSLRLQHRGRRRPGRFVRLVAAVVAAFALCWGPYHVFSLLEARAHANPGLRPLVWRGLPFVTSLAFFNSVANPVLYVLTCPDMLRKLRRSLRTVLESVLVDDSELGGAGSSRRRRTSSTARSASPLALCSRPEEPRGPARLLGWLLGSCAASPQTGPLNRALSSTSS
# Test: Radioligand displacement assay (3H-PGD2) on hCRTH2 receptor membranes
# Format: binding
# Details: antagonistic activity, 3H-PGD2 radioligand displacement, HEK293-hCRTH2 membranes
row,IC50 [nM],SMILES
1,80.6,O=C(O)COc1ccc(Cl)cc1C1c2ccccc2CCN1C(=O)CCn1ccc2ccc(C(F)(F)F)cc21 (racemic) [Example 370]
2,210,COc1ccc(OCC(=O)N2CCc3ccccc3C2c2cc(Cl)ccc2OCC(=O)O)cc1 (racemic) [Example 415]
3,170,O=C(O)COc1ccc(Cl)cc1[C@@H]1c2ccc(F)cc2CCN1C(=O)CCn1ncc2c(Cl)cccc21 [Example 402]

# Same assay, conditions: antagonistic activity; 3H-PGD2 displacement on HEK293-hCRTH2 membrane fragments
row,IC50 [nM],SMILES
1,30.9,"O=C(O)COc1ccc(Cl)cc1C1c2cccc(F)c2CCN1C(=O)COCc1ccccc1 (racemic) [Example 119, (±)-{2-[2-(2-Benzyloxy-acetyl)-5-fluoro-1,2,3,4-tetrahydro-isoquinolin-1-yl]-4-chloro-phenoxy}-acetic acid]"
2,5.23,"O=C(O)COc1ccc(Cl)cc1C1c2ccc(F)cc2CCN1C(=O)OCc1ccccc1 (racemic) [Example 226, (±)-1-(2-Carboxymethoxy-5-chloro-phenyl)-6-fluoro-3,4-dihydro-1H-isoquinoline-2-carboxylic acid benzyl ester]"
3,9.43,O=C(O)COc1ccc(Cl)cc1C1c2ccccc2CCN1C(=O)OCC1CCCCC1 (racemic) [Example 262]
4,116,O=C(O)COc1ccc(Cl)cc1C1c2ccccc2CCN1C(=O)CCc1cnnn1-c1ccccc1 (racemic) [Example 161]
5,11.1,Cc1ccccc1COCC(=O)N1CCc2ccccc2C1c1cc(F)ccc1OCC(=O)O (racemic) [Example 192]
